{"source": "paper PMC7759869", "about": "(Biomedicines, 2020)", "key": {"[1]": {"molecular_target": "T1, aldehyde oxidase (Homo sapiens, UniProt Q06278)", "T1 construct": "purchased Gentest Corp., Woburn, MA, USA; host or cells: insect cells (baculovirus)", "T1 sequence (Q06278 1-1338)": "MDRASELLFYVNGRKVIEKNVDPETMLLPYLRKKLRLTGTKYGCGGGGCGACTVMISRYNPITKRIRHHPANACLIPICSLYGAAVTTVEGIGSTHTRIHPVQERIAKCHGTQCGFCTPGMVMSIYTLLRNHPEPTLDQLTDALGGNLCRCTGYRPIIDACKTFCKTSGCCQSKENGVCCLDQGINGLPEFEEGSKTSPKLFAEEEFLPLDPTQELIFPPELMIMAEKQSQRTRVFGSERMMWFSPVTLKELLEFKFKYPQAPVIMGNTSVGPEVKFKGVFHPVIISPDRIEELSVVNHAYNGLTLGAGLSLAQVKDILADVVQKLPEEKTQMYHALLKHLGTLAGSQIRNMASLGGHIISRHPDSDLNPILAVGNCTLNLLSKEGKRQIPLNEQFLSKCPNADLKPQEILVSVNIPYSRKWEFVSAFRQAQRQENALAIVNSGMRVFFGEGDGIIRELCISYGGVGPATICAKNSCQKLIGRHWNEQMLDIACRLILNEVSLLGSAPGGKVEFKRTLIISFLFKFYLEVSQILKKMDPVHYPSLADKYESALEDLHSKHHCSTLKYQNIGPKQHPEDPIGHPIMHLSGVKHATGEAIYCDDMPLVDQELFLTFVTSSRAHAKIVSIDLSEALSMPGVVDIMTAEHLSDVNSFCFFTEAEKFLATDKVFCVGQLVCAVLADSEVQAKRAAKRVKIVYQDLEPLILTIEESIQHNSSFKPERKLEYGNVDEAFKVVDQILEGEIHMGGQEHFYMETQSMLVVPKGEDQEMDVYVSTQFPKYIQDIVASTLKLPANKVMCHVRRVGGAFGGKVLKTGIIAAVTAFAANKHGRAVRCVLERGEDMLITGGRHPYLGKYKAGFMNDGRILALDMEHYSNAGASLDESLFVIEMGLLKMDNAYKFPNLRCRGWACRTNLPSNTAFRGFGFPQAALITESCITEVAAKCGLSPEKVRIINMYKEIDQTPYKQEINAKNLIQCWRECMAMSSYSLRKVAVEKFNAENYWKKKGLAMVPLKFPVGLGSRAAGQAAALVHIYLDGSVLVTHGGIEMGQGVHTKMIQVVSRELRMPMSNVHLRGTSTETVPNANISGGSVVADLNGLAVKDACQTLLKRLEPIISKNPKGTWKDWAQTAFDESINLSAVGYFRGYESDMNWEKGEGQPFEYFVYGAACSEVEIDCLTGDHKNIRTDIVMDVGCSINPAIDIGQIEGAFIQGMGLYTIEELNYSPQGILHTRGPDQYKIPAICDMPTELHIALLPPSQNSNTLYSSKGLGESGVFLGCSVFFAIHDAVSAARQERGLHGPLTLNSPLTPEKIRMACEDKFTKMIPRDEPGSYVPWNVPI", "experiment": "Oxidation of cabozantinib by recombinant aldehyde oxidase", "type": "in vitro ADME", "settings": "human recombinant enzyme, data not shown"}, "[2]": {"molecular_target": "T2, FMO3 (Homo sapiens, UniProt P31513)", "T2 construct": "purchased Gentest Corp., Woburn, MA, USA; host or cells: insect cells (baculovirus)", "T2 sequence (P31513 1-532)": "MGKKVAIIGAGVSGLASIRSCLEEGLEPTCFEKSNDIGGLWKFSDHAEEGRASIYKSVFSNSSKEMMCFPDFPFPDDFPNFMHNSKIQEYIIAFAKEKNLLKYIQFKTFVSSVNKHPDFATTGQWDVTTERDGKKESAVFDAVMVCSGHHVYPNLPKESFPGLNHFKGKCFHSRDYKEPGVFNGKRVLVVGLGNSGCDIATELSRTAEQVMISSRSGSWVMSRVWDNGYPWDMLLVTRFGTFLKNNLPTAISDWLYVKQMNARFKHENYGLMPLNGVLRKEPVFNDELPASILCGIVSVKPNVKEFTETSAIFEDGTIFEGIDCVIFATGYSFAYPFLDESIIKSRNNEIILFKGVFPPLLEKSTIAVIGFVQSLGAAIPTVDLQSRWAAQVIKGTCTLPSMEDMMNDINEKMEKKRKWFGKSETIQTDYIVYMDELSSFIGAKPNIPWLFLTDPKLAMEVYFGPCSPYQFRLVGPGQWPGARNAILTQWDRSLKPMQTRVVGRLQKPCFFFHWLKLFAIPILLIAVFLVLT", "experiment": "Oxidation of cabozantinib by recombinant FMO3", "type": "in vitro ADME", "settings": "human recombinant enzyme, data not shown"}, "[3]": {"molecular_target": "T3, FMO5 (Homo sapiens, UniProt P49326)", "T3 construct": "purchased Gentest Corp., Woburn, MA, USA; host or cells: insect cells (baculovirus)", "T3 sequence (P49326 1-533)": "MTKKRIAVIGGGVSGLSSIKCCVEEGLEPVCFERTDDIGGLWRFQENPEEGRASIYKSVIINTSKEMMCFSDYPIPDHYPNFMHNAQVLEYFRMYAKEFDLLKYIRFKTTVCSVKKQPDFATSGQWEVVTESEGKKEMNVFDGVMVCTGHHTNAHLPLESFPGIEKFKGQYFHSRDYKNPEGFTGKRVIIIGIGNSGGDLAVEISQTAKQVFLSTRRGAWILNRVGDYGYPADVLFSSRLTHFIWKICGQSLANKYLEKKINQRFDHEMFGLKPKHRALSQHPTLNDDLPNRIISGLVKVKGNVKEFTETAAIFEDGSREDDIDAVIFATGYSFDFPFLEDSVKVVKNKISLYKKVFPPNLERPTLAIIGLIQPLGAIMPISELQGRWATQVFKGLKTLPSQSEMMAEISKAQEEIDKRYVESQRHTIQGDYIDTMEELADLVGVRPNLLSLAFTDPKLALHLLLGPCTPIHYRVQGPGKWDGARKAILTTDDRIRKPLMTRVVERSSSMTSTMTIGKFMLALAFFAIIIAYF", "experiment": "Oxidation of cabozantinib by recombinant FMO5", "type": "in vitro ADME", "settings": "human recombinant enzyme, data not shown"}, "[4]": {"parameters": "method as in earlier work", "settings": "cited from earlier work"}, "[5]": {"parameters": "concentration or dose not given beside the values", "settings": "metastatic renal cell carcinoma patients; cited from earlier work"}}, "data": [{"compound": "COc1cc2nccc(Oc3ccc(NC(=O)C4(C(=O)Nc5ccc(F)cc5)CC4)cc3)c2cc1OC", "note": "[cabozantinib, N′1-{4-[(6,7-dimethoxyquinolin-4-yl)oxy]phenyl}-N1-(4-fluorophenyl)cyclopropane-1,1-dicarboxamide]", "values": [{"measurement": "Oxidation of cabozantinib by aldehyde oxidase", "setting": "[1]", "result": "ineffective"}, {"measurement": "Oxidation of cabozantinib by FMO 3", "setting": "[2]", "result": "ineffective"}, {"measurement": "Oxidation of cabozantinib by FMO 5", "setting": "[3]", "result": "ineffective"}, {"measurement": "Bound by proteins in human plasma", "setting": "[4]", "result": "≥ 99.7", "unit": "%"}, {"measurement": "Plasma concentration, mean", "setting": "[5]", "result": "973 ± 501", "unit": "ng/mL"}]}]}
